According to patent US10017741B2, “Compositions and methods for obtaining enriched mesenchymal stem cell cultures” (StemCell Technologies Inc., priority 2013, dated 2018):
“Also recorded” adds a separate entry of the source.

Experiments:
[1] = system: CB-derived cultures (CD45+/CD11b+ macrophages, Sca1+ monocytes); experiment: Flow cytometry of CB-derived expansion cultures; format: cell-based, mouse
Description: (§1) c. Expansion of Human BM and Mouse BM and CB-Derived Cells Assay • 1. […] Cultures were allowed to grow for 10-14 days until adherent cells achieved 70 to 80% confluence. Mouse cultures were maintained under normal (5% CO2) or hypoxic conditions (5% CO2/5% O2) at 37 C in a cell culture incubator. Human cultures were maintained under 5% CO2 at 37 C in a humidified cell culture incubator. • 3. Adherent cells were passaged by releasing cultures from flask. Cultures were washed with 5 mL PBS and then 5 mL of 0.25% trypsin solution ([…] catalogue #07901) was added and the flasks incubated for 10 min at 37 C. To each flask, 5 mL complete medium was added to stop trypsin activity. • 4. Released cells were collected into a tube and centrifuged at 300×g for 5 minutes. • 5. Cells were resuspended in 2 mL of medium and counted using a hemocytometer. • 6. […] P1 cultures were incubated until they reached 70 to 80% confluence. • 8. Passaged cultures can be used at any time from P0 to P10 as needed for different applications.
(§2) d. Flow Cytometry Analysis • 1. Cultures of BM and CB-derived cells were trypsinized for 10 minutes and an equal volume of complete medium was added to cultures to stop trypsin activity • 2. Cell suspension was filtered through a 40 μm strainer, and cells counted using a hemocytometer • 3. Suspension was spun down at 300×g for 5 minutes. • 4. Supernatant was removed and cell pellet resuspended in FACS buffer (PBS with 2% FBS and 1 mM EDTA) • 5. A total of 1×10^5 cells in 300 μL FACS buffer was used for each flow cytometry analysis tube, including unstained, viability, compensation, and isotype controls. • 6. Cell suspensions were stained with fluorophore-labeled antibodies against CD45, CD11b, and Sca1, CD29, and viability dye. • 7. Cell suspensions were analyzed on a flow cytometer using compensation and isotype control to determine laser voltage and gating. • 8. Samples were gated on viable CD45^+ cells and 10,000 events per sample were collected. Alternatively, cells were gated on viable CD45^− cells and out of this gate the proportion of CD29+/Sca1^+ cells obtained.

[2] = system: CB-derived cultures (macrophage contamination, MSC morphology); experiment: Images of CB-derived expansion cultures; format: cell-based, mouse; conditions: for macrophage contamination and MSC enrichment (images): CB
Description: as §1

mouse BM-MSC cultures = experiment: Osteogenic and adipogenic differentiation of mouse BM-MSC; format: cell-based
Description: During the process of culture, expansion, or maintenance of MSCs, it is imperative that these cells maintain their functional properties so they can be used for specific downstream applications, including characterization by differentiation. […] BM-MSCs that were initially exposed to vehicle- or GW2580-containing media were plated at 3 different densities (FIG. 18A) in MesenCult Proliferation Medium and allowed to adhere to the plates overnight. Cultures were then differentiated for 14 days in MesenCult Osteogenic Medium, and the medium changed every 3 days. Osteogenic cultures were then fixed and stained for alkaline phosphates (ALP) activity (red areas) and mineralization (black areas). In control cultures ([…]), a modest differentiation into the osteogenic lineage was only observed when cultures were seeded at the highest density of 1.2×10^5 cells/cm^2. […] Cultures were then differentiated for 14 days into the adipogenic and osteogenic lineages (FIG. 18B).

[3] = system: BM-MSCs (CD45−/CD29+/Sca1+); experiment: Total cell count with flow cytometry, BM-MSC cultures; format: cell-based, mouse
Description: as §2
(§3) Prior to flow cytometry, control and GW2580-treated cultures of BM- and CB-MSC were dissociated from tissue culture flasks by trypsinization and the total number of cells counted with the aid of a hemocytometer. Flow cytometry analysis was performed and the ratio of CD45^− cells and CD45^−/CD29^+/Sca1^+ cells applied to the total number of cells to obtain the actual number of these cells in culture (Table 2).

[4] = system: CB-MSCs (CD45−/CD29+/Sca1+); experiment: Total cell count with flow cytometry, CB-MSC cultures; format: cell-based, mouse
Description: as §2, §3

26 other kinases = conditions: cited from earlier work
mouse myeloid cells = conditions: at 700 nM; cited from earlier work
[5] = system: CSF-1-independent cell line, human fibroblasts, and other endothelial cells; conditions: cited from earlier work
[6] = CB, 1 μM P0-P1 then vehicle P2-P3, analysed at P3, adherent cells
[7] = CB, 1 μM P0-P1 then vehicle P2-P3, analysed at P3, non-adherent cells
[8] = CB, P4, DMSO P0-P2 then 1 μM GW2580 P3-P4, or P4 control cultures EasySep-enriched
[9] = BM-MSCs, 2.5 uM GW2580, 14 days during P0
[10] = CB-MSCs, 2.5 uM GW2580, 14 days during P0

COc1ccc(COc2ccc(Cc3cnc(N)nc3N)cc2OC)cc1 [GW2580, 5-(3-Methoxy-4-((4-methoxybenzyl)oxy)benzyl)pyrimidine-2,4-diamine]
dose-response increase in CD45+/CD11b+/Sca1+ hematopoietic monocytes ([1]; CB, 1 μM): 18%
number of CD45+/CD11b+/Sca1+ monocytes ([1]; CB, 1 μM (control 7%)): 25%
number of CD45+ cells ([1]; CB, 1 μM (control 78%)): 64%
CD45+/CD11b+ mature macrophages ([1]; CB, 1 μM (control 93%)): 75%
CD45+/CD11b+/Sca1+ monocytes, of CD45+ cells [1, 6]: 2%
CD45+/CD11b+/Sca1− mature macrophages, of CD45+ cells [1, 6]: 97%
CD45+/CD11b+/Sca1+ monocytes, of CD45+ cells [1, 7]: < 1%
CD45+/CD11b+/Sca1− mature macrophages, of CD45+ cells [1, 7]: 99%
CD11b+/Sca1+ hematopoietic monocytes, of CD45+ cells ([1]; CB, 1 μM P0 to P2): 28%
CD11b+/Sca1− mature macrophages, of CD45+ cells ([1]; CB, 1 μM P0 to P2): 62%
overall reduction in CD45+ cells ([1]; CB, 1 μM P0 to P2): 15%
reduction in CD45+/CD11b+/Sca1+ monocyte differentiation into mature macrophage (increase in Sca1+ fraction vs control) ([1]; CB, 1 μM P0 to P2): 22%
CD11b+/Sca1+ hematopoietic monocytes, of CD45+ cells ([1]; CB, 1 μM P0 to P3): 20%
CD11b+/Sca1− mature macrophages, of CD45+ cells ([1]; CB, 1 μM P0 to P3): 76%
overall reduction in CD45+ cells ([1]; CB, 1 μM P0 to P3): 55%
reduction in CD45+/CD11b+/Sca1+ monocyte differentiation into macrophage (increase in Sca1+ cells vs control) ([1]; CB, 1 μM P0 to P3): 8%
reduction in CD45+/CD11b+/Sca1− mature macrophage differentiation ([1]; CB, 1 μM, at P3): 12%
dose-response increase in CD45+/CD11b+/Sca1+ hematopoietic monocytes ([1]; CB, 5 μM): 32%
number of CD45+/CD11b+/Sca1+ monocytes ([1]; CB, 5 μM (control 7%)): 39%
number of CD45+ cells ([1]; CB, 5 μM (control 78%)): 36%
CD45+/CD11b+ mature macrophages ([1]; CB, 5 μM (control 93%)): 60%
dose-response increase in CD45+/CD11b+/Sca1+ hematopoietic monocytes ([1]; CB, 10 μM): 41%
number of CD45+/CD11b+/Sca1+ monocytes ([1]; CB, 10 μM (control 7%)): 48%
number of CD45+ cells ([1]; CB, 10 μM (control 78%)): 30%
CD45+/CD11b+ mature macrophages ([1]; CB, 10 μM (control 93%)): 50%
CD45+/CD11b+ mature macrophages, of total viable cells ([1]; CB, P1, 1 μM): 34%
reduction in macrophages vs control ([1]; CB, P1, 1 μM): 50%
CD11b+/Sca1+ monocytes, of CD45+ cells [1, 8]: about 75%
CD11b+/Sca1− mature macrophages, of CD45+ cells [1, 8]: around 25%
CD45+/CD11b+ mature macrophages, of viable cells ([1]; CB-derived cultures, 1 μM up to P2): < 1%
macrophage contamination and MSC enrichment (images) ([2]; 1 μM continuous P0-P3): have reduced numbers of macrophages; also recorded: contain a much reduced number of these contaminating macrophages
macrophage contamination and MSC enrichment (images) ([2]; 1 μM, P2): a much reduced number of macrophages is observed; also recorded: enriched and mostly devoid of macrophage contamination
macrophage contamination and MSC appearance (images) ([2]; CB, 1, 5 and 10 μM): have reduced numbers of contaminating macrophages; also recorded: a noticeable decrease in macrophages was noticed
osteogenic differentiation (ALP activity, mineralization) (mouse BM-MSC cultures; BM-MSC, 1 uM for 2 passages, seeded at 4.0×10^4 cells/cm^2, 14 days): a significant and robust increase in osteogenic differentiation
adipogenic and osteogenic differentiation (Oil Red O, ALP/mineralization) (mouse BM-MSC cultures; BM-MSC, 2.5 uM for 2 passages, plated at 4.0×10^4 cells/cm^2, 14 days): substantial adipogenic and osteogenic differentiation
differentiation into osteogenic and adipogenic lineages vs control cultures (mouse BM-MSC cultures; mouse BM-MSC exposed to GW2580 during expansion): stronger and more robust differentiation
actual increase in BM-MSCs (CD45−/CD29+/Sca1+) vs control ([3]; BM-MSC, 2.5 uM GW2580): 0.25 fold
increase in number of CD45−/CD29+/Sca1+ MSCs vs control ([3]; BM-MSC, 2.5 uM GW2580): 26%
Actual number of cells, CD45− [3, 9]: 665,331
Actual number of cells, CD45−/CD29+/Scal+ [3, 9]: 639,450
CD45−, Percent (Flow Cytometry) [3, 9]: 70.48%
total cells [3, 9]: 9.44E+05
CD45−/CD29+/Scal+, Percent (Flow Cytometry) ([3]; BM-MSCs, 2.5 uM GW2580, 14 days during P0, out of CD45− gate): 96.11%
increase in number of CD45−/CD29+/Sca1+ MSCs vs control ([4]; CB-MSC, 2.5 uM GW2580): 310%
Actual number of cells, CD45− [4, 10]: 530,702
Actual number of cells, CD45−/CD29+/Scal+ [4, 10]: 507,616
CD45−, Percent (Flow Cytometry) [4, 10]: 95.45%
total cells [4, 10]: 5.56E+05
CD45−/CD29+/Scal+, Percent (Flow Cytometry) ([4]; CB-MSCs, 2.5 uM GW2580, 14 days during P0, out of CD45− gate): 95.65%
activity against 26 other kinases tested (26 other kinases): inactive
inhibition of CSF-1-dependent growth of mouse myeloid cells (mouse myeloid cells): completely inhibited
sensitivity of CSF-1-independent cell line, human fibroblasts and other endothelial cells to GW2580 [5]: highly resistant
